Target: T1, BRM (Homo sapiens, UniProt P51531)
T1 construct: In-Cell Western Screen of BRM Degradation in SW1573 Cells; endogenous in cells; host or cells: SW1573
Assay: In-cell Western screen of BRM degradation in SW1573 cells (Dmax and DC50)
Assay type: cell-based
Conditions: BRM degradation, SW1573 cells; for DC50: read-out: DC50; for Dmax: read-out: Dmax (% degraded)
Outline: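 SW1573 cells were treated with compound overnight (18-20 h; final DMSO 0.1%), then fixed in 4% PFA, permeabilized with Triton X-100 and blocked. BRM was detected by in-cell Western using 800 nm anti-rabbit and 680 nm anti-mouse secondaries, and Dmax and DC50 were derived from the LI-COR Odyssey signal.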

T1 sequence (P51531 whole entry): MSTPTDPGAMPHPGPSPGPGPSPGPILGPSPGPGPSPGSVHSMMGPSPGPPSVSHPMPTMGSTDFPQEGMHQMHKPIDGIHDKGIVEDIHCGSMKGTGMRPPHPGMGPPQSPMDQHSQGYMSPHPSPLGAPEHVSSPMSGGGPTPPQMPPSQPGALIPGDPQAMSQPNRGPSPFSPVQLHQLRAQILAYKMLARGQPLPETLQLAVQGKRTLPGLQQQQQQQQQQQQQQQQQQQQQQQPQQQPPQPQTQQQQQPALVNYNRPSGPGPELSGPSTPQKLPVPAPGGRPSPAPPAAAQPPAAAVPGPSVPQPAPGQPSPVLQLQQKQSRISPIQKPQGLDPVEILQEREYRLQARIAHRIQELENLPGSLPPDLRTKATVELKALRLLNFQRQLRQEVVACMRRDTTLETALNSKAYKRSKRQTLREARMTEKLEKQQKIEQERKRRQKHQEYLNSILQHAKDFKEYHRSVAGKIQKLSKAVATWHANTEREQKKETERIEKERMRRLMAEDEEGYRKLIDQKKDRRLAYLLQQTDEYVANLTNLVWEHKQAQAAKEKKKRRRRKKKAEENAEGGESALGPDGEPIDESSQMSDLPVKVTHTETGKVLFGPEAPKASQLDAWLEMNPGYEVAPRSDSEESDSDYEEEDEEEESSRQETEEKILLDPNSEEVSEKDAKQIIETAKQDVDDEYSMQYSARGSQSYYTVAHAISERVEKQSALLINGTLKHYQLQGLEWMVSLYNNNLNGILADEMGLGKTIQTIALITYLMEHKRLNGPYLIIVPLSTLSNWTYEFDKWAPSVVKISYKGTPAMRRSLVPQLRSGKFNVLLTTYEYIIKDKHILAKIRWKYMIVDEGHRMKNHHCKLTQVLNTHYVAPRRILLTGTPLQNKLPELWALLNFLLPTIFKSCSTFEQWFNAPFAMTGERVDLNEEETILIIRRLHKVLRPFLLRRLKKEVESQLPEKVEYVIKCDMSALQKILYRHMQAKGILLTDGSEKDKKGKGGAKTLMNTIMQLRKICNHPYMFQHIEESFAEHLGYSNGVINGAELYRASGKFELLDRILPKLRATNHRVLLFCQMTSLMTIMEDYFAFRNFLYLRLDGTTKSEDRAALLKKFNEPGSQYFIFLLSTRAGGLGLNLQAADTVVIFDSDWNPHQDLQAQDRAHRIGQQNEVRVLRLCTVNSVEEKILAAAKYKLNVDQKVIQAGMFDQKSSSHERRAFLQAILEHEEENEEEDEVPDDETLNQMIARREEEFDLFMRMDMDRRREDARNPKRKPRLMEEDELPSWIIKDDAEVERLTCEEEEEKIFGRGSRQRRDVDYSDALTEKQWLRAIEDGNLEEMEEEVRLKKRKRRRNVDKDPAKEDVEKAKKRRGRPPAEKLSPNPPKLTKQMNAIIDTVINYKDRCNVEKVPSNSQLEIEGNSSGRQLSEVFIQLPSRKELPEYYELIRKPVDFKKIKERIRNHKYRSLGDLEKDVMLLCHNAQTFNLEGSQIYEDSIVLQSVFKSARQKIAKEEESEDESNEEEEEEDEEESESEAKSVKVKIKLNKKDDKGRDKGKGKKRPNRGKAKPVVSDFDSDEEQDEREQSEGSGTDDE

Row | Compound | DC50 | Dmax
1 | Cc1ncsc1-c1ccc([C@H](C)NC(=O)[C@@H]2C[C@@H](O)CN2C(=O)[C@H](c2cc(N3CCC(CN4CCC(O[C@H]5C[C@H](Oc6cc(N7C8CCC7CN(c7cc(-c9ccccc9O)nnc7N)C8)ccn6)C5)CC4)CC3)no2)C(C)C)cc1F [compound 651, (2S,4R)-1-((2S)-2-(3-(4-((4-((1r,3r)-3-((4-(3-(3-amino-6-(2-hydroxyphenyl)pyridazin-4-yl)-3,8-diazabicyclo[3.2.1]octan-8-yl)pyridin-2-yl)oxy)cyclobutoxy)piperidin-1-yl)methyl)piperidin-1-yl)isoxazol-5-yl)-3-methylbutanoyl)-N-((S)-1-(3-fluoro-4-(4-methylthiazol-5-yl)phenyl)ethyl)-4-hydroxypyrrolidine-2-carboxamide] | > 30 nM | –
2 | Cc1ncsc1-c1ccc([C@H](C)NC(=O)[C@@H]2C[C@@H](O)CN2C(=O)[C@@H](c2cc(N3CCC(CN4CCC(O[C@H]5C[C@H](Oc6cc(N7C8CCC7CN(c7cc(-c9ccccc9O)nnc7N)C8)ccn6)C5)CC4)CC3)no2)C(C)C)cc1F [compound 652, (2S,4R)-1-((2R)-2-(3-(4-((4-((1r,3r)-3-((4-(3-(3-amino-6-(2-hydroxyphenyl)pyridazin-4-yl)-3,8-diazabicyclo[3.2.1]octan-8-yl)pyridin-2-yl)oxy)cyclobutoxy)piperidin-1-yl)methyl)piperidin-1-yl)isoxazol-5-yl)-3-methylbutanoyl)-N-((S)-1-(3-fluoro-4-(4-methylthiazol-5-yl)phenyl)ethyl)-4-hydroxypyrrolidine-2-carboxamide] | < 2.5 nM | > 75%
3 | Cc1ncsc1-c1ccc([C@H](CO)NC(=O)[C@@H]2C[C@@H](O)CN2C(=O)[C@@H](c2cc(N3CCC(CN4CCC(O[C@H]5C[C@H](Oc6cc(N7C8CCC7CN(c7cc(-c9ccccc9O)nnc7N)C8)ccn6)C5)CC4)CC3)no2)C(C)C)cc1 [compound 653, (2S,4R)-1-((2R)-2-(3-(4-((4-((1r,3r)-3-((4-(3-(3-amino-6-(2-hydroxyphenyl)pyridazin-4-yl)-3,8-diazabicyclo[3.2.1]octan-8-yl)pyridin-2-yl)oxy)cyclobutoxy)piperidin-1-yl)methyl)piperidin-1-yl)isoxazol-5-yl)-3-methylbutanoyl)-4-hydroxy-N-((R)-2-hydroxy-1-(4-(4-methylthiazol-5-yl)phenyl)ethyl)pyrrolidine-2-carboxamide] | < 2.5 nM | > 75%
4 | CC[C@H](NC(=O)[C@@H]1C[C@@H](O)CN1C(=O)[C@@H](c1cc(N2CCC(CN3CCC(O[C@H]4C[C@H](Oc5cc(N6C7CCC6CN(c6cc(-c8ccccc8O)nnc6N)C7)ccn5)C4)CC3)CC2)no1)C(C)C)c1ccc(-c2scnc2C)cc1 [compound 654, (2S,4R)-1-((2R)-2-(3-(4-((4-((1r,3r)-3-((4-(3-(3-amino-6-(2-hydroxyphenyl)pyridazin-4-yl)-3,8-diazabicyclo[3.2.1]octan-8-yl)pyridin-2-yl)oxy)cyclobutoxy)piperidin-1-yl)methyl)piperidin-1-yl)isoxazol-5-yl)-3-methylbutanoyl)-4-hydroxy-N-((S)-1-(4-(4-methylthiazol-5-yl)phenyl)propyl)pyrrolidine-2-carboxamide] | < 2.5 nM | > 75%
5 | Cc1ncsc1-c1ccc([C@H](C)NC(=O)[C@@H]2C[C@@H](O)CN2C(=O)[C@H](c2cc(N3CCCC(CN4CCC(O[C@H]5C[C@H](Oc6cc(N7C8CCC7CN(c7cc(-c9ccccc9O)nnc7N)C8)ccn6)C5)CC4)C3)no2)C(C)C)cc1 (stereo partly drawn) [compound 655, (2S,4R)-1-((2S)-2-(3-(3-((4-((1r,3S)-3-((4-(3-(3-amino-6-(2-hydroxyphenyl)pyridazin-4-yl)-3,8-diazabicyclo[3.2.1]octan-8-yl)pyridin-2-yl)oxy)cyclobutoxy)piperidin-1-yl)methyl)piperidin-1-yl)isoxazol-5-yl)-3-methylbutanoyl)-4-hydroxy-N-((S)-1-(4-(4-methylthiazol-5-yl)phenyl)ethyl)pyrrolidine-2-carboxamide] | > 30 nM | –
6 | Cc1ncsc1-c1ccc([C@H](C)NC(=O)[C@@H]2C[C@@H](O)CN2C(=O)[C@H](c2cc(N3CCC4(CCCN(C[C@H]5C[C@H](Oc6cc(N7C8CCC7CN(c7cc(-c9ccccc9O)nnc7N)C8)ccn6)C5)C4)CC3)no2)C(C)C)cc1 [compound 659, (2S,4R)-1-((2S)-2-(3-(2-(((1r,3S)-3-((4-(3-(3-amino-6-(2-hydroxyphenyl)pyridazin-4-yl)-3,8-diazabicyclo[3.2.1]octan-8-yl)pyridin-2-yl)oxy)cyclobutyl)methyl)-2,9-diazaspiro[5.5]undecan-9-yl)isoxazol-5-yl)-3-methylbutanoyl)-4-hydroxy-N-((S)-1-(4-(4-methylthiazol-5-yl)phenyl)ethyl)pyrrolidine-2-carboxamide] | > 30 nM | –
7 | Cc1ncsc1-c1ccc([C@H](C)NC(=O)[C@@H]2C[C@@H](O)CN2C(=O)[C@@H](c2cc(N3CCC4(CCCN(C[C@H]5C[C@H](Oc6cc(N7C8CCC7CN(c7cc(-c9ccccc9O)nnc7N)C8)ccn6)C5)C4)CC3)no2)C(C)C)cc1 [compound 660, (2S,4R)-1-((2R)-2-(3-(2-(((1r,3R)-3-((4-(3-(3-amino-6-(2-hydroxyphenyl)pyridazin-4-yl)-3,8-diazabicyclo[3.2.1]octan-8-yl)pyridin-2-yl)oxy)cyclobutyl)methyl)-2,9-diazaspiro[5.5]undecan-9-yl)isoxazol-5-yl)-3-methylbutanoyl)-4-hydroxy-N-((S)-1-(4-(4-methylthiazol-5-yl)phenyl)ethyl)pyrrolidine-2-carboxamide] | < 2.5 nM | > 75%
8 | Cc1ncsc1-c1ccc([C@H](CCO)NC(=O)[C@@H]2C[C@@H](O)CN2C(=O)[C@@H](c2cc(N3CCC(CN4CCC(O[C@H]5C[C@H](Oc6cc(N7C8CCC7CN(c7cc(-c9ccccc9O)nnc7N)C8)ccn6)C5)CC4)CC3)no2)C(C)C)cc1 [compound 661, (2S,4R)-1-((2R)-2-(3-(4-((4-((1r,3r)-3-((4-(3-(3-amino-6-(2-hydroxyphenyl)pyridazin-4-yl)-3,8-diazabicyclo[3.2.1]octan-8-yl)pyridin-2-yl)oxy)cyclobutoxy)piperidin-1-yl)methyl)piperidin-1-yl)isoxazol-5-yl)-3-methylbutanoyl)-4-hydroxy-N-((S)-3-hydroxy-1-(4-(4-methylthiazol-5-yl)phenyl)propyl)pyrrolidine-2-carboxamide] | < 2.5 nM | > 75%
9 | Cc1ncsc1-c1ccc([C@@H](CCO)NC(=O)[C@@H]2C[C@@H](O)CN2C(=O)[C@@H](c2cc(N3CCC(CN4CCC(O[C@H]5C[C@H](Oc6cc(N7C8CCC7CN(c7cc(-c9ccccc9O)nnc7N)C8)ccn6)C5)CC4)CC3)no2)C(C)C)cc1 [compound 662, (2S,4R)-1-((2R)-2-(3-(4-((4-((1r,3r)-3-((4-(3-(3-amino-6-(2-hydroxyphenyl)pyridazin-4-yl)-3,8-diazabicyclo[3.2.1]octan-8-yl)pyridin-2-yl)oxy)cyclobutoxy)piperidin-1-yl)methyl)piperidin-1-yl)isoxazol-5-yl)-3-methylbutanoyl)-4-hydroxy-N-((R)-3-hydroxy-1-(4-(4-methylthiazol-5-yl)phenyl)propyl)pyrrolidine-2-carboxamide] | 2.5 to 10 nM | > 75%

From patent publication US12539292B2, “BRM targeting compounds and associated methods of use” (Arvinas Operations, Inc., priority 2018, dated 2026)
